ChEMBL document CHEMBL1155609, “New cytotoxic sterol glycosides from the octocoral Carijoa (Telesto) riisei” (2000)
≈ marks a conversion by molar mass, not a printed value.

System: HCT-116
Test: Cytotoxicity against human HCT116 cells
Type: functional
Conditions: read-out: ED50 (the source's name)

Row | SMILES | EC50 [µg/mL]
1 | CC(=O)OCC(C)CCC[C@@H](C)[C@H]1CC[C@H]2[C@@H]3C[C@@H](O)[C@@]4(O)C[C@@H](O[C@@H]5OC[C@@H](O)[C@@H](OC(C)=O)[C@@H]5O)CC[C@]4(C)[C@H]3CC[C@]12C (some centres not stated) [RIISEIN A] | 2 (≈ 3.06 µM)
2 | CC(=O)OCC(C)CCC[C@@H](C)[C@H]1CC[C@H]2[C@@H]3C[C@@H](O)[C@@]4(O)C[C@@H](O[C@@H]5OC[C@@H](OC(C)=O)[C@@H](O)[C@@H]5O)CC[C@]4(C)[C@H]3CC[C@]12C (some centres not stated) [RIISEIN B] | 2 (≈ 3.06 µM)
